Assay [1] has as its target T1, human recombinant ETA receptors (Homo sapiens, UniProt P25101).
T1 construct: expressed in transfected cells; host or cells: CHO cells
T1 sequence (P25101 21-427): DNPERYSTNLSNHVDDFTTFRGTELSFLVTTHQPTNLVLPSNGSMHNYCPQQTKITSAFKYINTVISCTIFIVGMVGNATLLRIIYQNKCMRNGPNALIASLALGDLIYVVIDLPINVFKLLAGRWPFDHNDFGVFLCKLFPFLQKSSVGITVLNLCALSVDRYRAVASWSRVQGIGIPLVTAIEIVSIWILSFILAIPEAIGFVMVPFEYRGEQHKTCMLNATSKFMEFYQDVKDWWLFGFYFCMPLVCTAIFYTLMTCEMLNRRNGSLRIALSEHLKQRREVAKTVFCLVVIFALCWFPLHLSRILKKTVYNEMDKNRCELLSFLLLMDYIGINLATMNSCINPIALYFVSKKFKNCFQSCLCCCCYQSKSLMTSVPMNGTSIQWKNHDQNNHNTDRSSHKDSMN
Description: Inhibition of [125I]ET-1 binding to membranes from CHO cells carrying human ETA receptors. The procedure:
(§1) 1) Inhibition of Endothelin Binding to Membranes from CHO Cells Carrying Human ET Receptors:
(§2) For competition binding studies, membranes of CHO cells expressing human recombinant ETA or ETB receptors were used.
(§3) The assay was performed in 200 uL 50 mM Tris/HCl buffer, pH 7.4, including 25 mM MnCl2, 1 mM EDTA and 0.5% (w/v) BSA in polypropylene microtiter plates. […] After 2 h, the membranes were filtered on filterplates containing GF/C filters (Unifilterplates from Can berra Packard S. A. Zürich, Switzerland). To each well, 50 uL of scintillation cocktail was added (MicroScint 20, Can berra Packard S. A. Zürich, Switzerland) and the filter plates counted in a microplate counter (TopCount, Can berra Packard S. A. Zürich, Switzerland).
(§4) All the test compounds were dissolved, diluted and added in DMSO.

In assay [2] the target is T2, human recombinant ETB receptors (Homo sapiens, UniProt P24530).
T2 construct: expressed in transfected cells; host or cells: CHO cells
T2 sequence (P24530 27-442): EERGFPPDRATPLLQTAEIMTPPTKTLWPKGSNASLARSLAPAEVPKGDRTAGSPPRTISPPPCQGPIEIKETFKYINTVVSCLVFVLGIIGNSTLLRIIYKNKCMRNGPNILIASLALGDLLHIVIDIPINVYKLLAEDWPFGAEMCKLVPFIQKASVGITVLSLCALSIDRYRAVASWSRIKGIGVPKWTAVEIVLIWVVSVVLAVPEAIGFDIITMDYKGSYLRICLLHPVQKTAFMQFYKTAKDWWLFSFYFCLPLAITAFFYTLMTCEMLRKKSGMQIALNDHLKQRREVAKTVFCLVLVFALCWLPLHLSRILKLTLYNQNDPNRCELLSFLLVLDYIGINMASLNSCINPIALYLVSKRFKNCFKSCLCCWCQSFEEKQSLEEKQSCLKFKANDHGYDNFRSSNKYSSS
Description: Inhibition of [125I]ET-1 binding to membranes from CHO cells carrying human ETB receptors. The procedure:
as §1, §2, §3, §4

Assay [3] has as its target T3, rat aortic rings (ETA receptors) (Rattus norvegicus, UniProt P26684).
T3 construct: from tissue; host or cells: thoracic aorta rings of adult Wistar rats, endothelium removed
T3 sequence (P26684 21-426): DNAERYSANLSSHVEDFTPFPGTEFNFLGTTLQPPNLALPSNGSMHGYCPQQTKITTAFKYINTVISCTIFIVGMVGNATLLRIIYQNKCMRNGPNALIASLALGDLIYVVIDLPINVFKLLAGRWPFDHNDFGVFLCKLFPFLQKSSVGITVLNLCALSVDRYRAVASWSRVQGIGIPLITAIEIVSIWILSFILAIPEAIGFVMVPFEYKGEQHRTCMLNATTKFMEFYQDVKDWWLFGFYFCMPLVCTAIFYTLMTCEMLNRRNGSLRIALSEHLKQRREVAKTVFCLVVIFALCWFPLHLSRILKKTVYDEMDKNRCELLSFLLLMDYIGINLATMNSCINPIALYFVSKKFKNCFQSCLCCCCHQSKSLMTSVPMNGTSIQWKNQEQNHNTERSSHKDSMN
Put plainly: Inhibition of endothelin-1-induced contractions on isolated rat aortic rings. In kind it is cell-based. The settings on record: read-out: pA2 (aortic rings) (converted). The method, then: (§5) 2) Inhibition of Endothelin-Induced Contractions on Isolated Rat Aortic Rings (ETA Receptors) and Rat Tracheal Rings (ETB Receptors):
(§6) Adult Wistar rats were anesthetized and exsanguinated. The thoracic aorta or trachea were excised, dissected and cut in 3–5 mm rings. The endothelium/epithelium was removed by gentle rubbing of the intimal surface. […] The rings were connected to force transducers and isometric tension was recorded (EMKA Technologies SA, Paris, France). The rings were stretched to a resting tension of 3 g (aorta) or 2 g (trachea). […] The functional inhibitory potency of the test compound was assessed by calculating the concentration ratio, i.e. the shift to the right of the EC50 induced by different concentrations of test compound. EC50 is the concentration of endothelin needed to get a half-maximal contraction, pA2 is the negative logarithm of the antagonist concentration which induces a two-fold shift in the EC50 value.

In assay [4] the target is T4, rat tracheal rings (ETB receptors) (Rattus norvegicus, UniProt P21451).
T4 construct: from tissue; host or cells: tracheal rings of adult Wistar rats, epithelium removed
T4 sequence (P21451 27-442): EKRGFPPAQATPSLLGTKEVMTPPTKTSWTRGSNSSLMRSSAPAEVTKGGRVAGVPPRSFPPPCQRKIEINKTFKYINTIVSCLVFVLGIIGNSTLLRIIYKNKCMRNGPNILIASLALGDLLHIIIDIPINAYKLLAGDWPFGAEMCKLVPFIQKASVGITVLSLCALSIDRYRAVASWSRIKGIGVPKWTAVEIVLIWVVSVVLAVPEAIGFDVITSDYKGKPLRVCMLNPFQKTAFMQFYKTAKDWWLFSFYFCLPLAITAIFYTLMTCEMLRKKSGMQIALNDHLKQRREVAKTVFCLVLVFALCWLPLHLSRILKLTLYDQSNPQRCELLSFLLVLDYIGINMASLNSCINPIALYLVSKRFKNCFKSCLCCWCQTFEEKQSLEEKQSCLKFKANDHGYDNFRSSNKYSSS
Put plainly: Inhibition of sarafotoxin S6c-induced contractions on isolated rat tracheal rings. The format is cell-based. The method, then:
as §5, §6

Structures are written as SMILES.

Regarding `Cc1ccc(-c2c(NS(=O)(=O)CCc3ccccc3)ncnc2OCCOc2ncccn2)cc1` [Example 1, 2-phenyl-ethanesulfonic acid {6-[2-(pyrimidin-2-yloxy)-ethoxy]-5-p-tolyl-pyrimidin-4-yl}-amide], the results for the IC50 in assay [1] and in assay [2] were 27 nM and 6650 nM, respectively.
In the same order, the values of `Cc1ccc(-c2c(NS(=O)(=O)CCc3ccccc3)ncnc2OCCOc2ccc(C(F)(F)F)cn2)cc1` [Example 2, 2-phenyl-ethanesulfonic acid {5-p-tolyl-6-[2-(5-trifluoromethyl-pyridin-2-yloxy)-ethoxy]-pyrimidin-4-yl}-amide] are 20 nM and 899 nM.
Turning to `COc1ccccc1Oc1c(NS(=O)(=O)CCc2ccccc2)nc(-c2ncccn2)nc1OCCOc1ncc(Br)cn1` [Example 5, 2phenylethanesulfonic acid {5-(2-methoxy-phenoxy)-6-[2-(5-bromopyrimidin-2-yloxy)-ethoxy]-2-(2-pyrimidinyl)-4-pyrimidinyl}-amide], in assay [1], the IC50 is 3 nM. Moreover, the Kb in assay [3] is 4.17 nM.
As to `Cc1ccc(-c2c(NS(=O)(=O)CCc3ccccc3)ncnc2OCCOc2ncc(Br)cn2)cc1` [Example 7], the results for the IC50 in assay [1] and in assay [2] were 4 nM and 3310 nM, respectively. The results for the Kb in assay [3] and in assay [4] were 1.48 nM and 85.1 nM, respectively.
For `Cc1ccc(-c2c(NS(=O)(=O)CCc3ccccc3)ncnc2OCCOc2ncc(C)cn2)cc1` [Example 8], in assay [3], the Kb is 37.2 nM.
As to `Cc1ccc(-c2c(NS(=O)(=O)CCc3ccccc3)nc(-c3ccncc3)nc2OCCOc2ncc(Br)cn2)cc1` [Example 10], the IC50 is 9 nM in assay [1] and 2410 nM in assay [2].
In the case of `Cc1ccc(-c2c(NS(=O)(=O)CCc3ccccc3)nc(-c3ncccn3)nc2OCCOc2ncc(Cl)cn2)cc1` [Example 13], the IC50 in assay [1] came to 4 nM; in assay [2], 3680 nM.
For `Cc1ccc(-c2c(NS(=O)(=O)CCc3ccccc3)nc(-c3ncccn3)nc2OCCOc2ncc(Br)cn2)cc1` [Example 14], in that order: 6 nM and 2230 nM.
As to `Cc1ccc(-c2c(NS(=O)(=O)CCc3ccccc3)ncnc2OCCOc2ncc(Br)cn2)cc1C` [Example 19], the figures for the IC50 in assay [1] and in assay [2] were 3 nM and 1930 nM, respectively.
`COc1cnc(OCCOc2nc(-c3ncccn3)nc(NS(=O)(=O)CCc3ccccc3)c2Oc2ccccc2OC)nc1` [Example 29]: the IC50 in assay [1] was found to be 10 nM.
Take `COc1cnc(OCCOc2nc(-c3cnccn3)nc(NS(=O)(=O)CCc3ccccc3)c2Oc2ccccc2OC)nc1` [Example 34]: the Kb in assay [3] was 21.4 nM.
On to `COc1ccccc1Oc1c(NS(=O)(=O)CCc2ccccc2)nc(N2CCOCC2)nc1OCCOc1ncc(SC)cn1` [Example 39], for which the IC50 in assay [1] was found to be 3 nM; in assay [2] it was 261 nM.
`COc1cccc(Oc2c(NS(=O)(=O)CCc3ccccc3)ncnc2OCCOc2ncc(Br)cn2)c1` [Example 46]: the IC50 in assay [1] stood at 7 nM; in assay [2], 2360 nM.
As to `COc1cnc(OCCOc2ncnc(NS(=O)(=O)CCc3ccccc3)c2Oc2cccc(OC)c2)nc1` [Example 47], the half-inhibitory concentration (IC50) amounted to 24 nM in assay [1] and 2720 nM in assay [2].
Turning to `Cc1ccc(-c2c(NS(=O)(=O)CCc3cccs3)ncnc2OCCOc2ncc(Br)cn2)cc1` [Example 49], the IC50 in assay [1] is 4 nM; in assay [2] it was 2490 nM.
On to `O=S(=O)(CCc1cccs1)Nc1ncnc(OCCOc2ncc(Br)cn2)c1-c1ccc(Cl)cc1` [Example 52], for which the 50% inhibitory concentration (IC50) in assay [1] was 5 nM; in assay [2], 1770 nM.
Regarding `COc1ccccc1Oc1c(NS(=O)(=O)CCc2ccccn2)nc(-c2ccncc2)nc1OCCOc1ncc(Br)cn1` [Example 61], the IC50 in assay [1] was 10 nM; in assay [2], 1140 nM. For the same compound, the Kb in assay [3] was 14.8 nM; in assay [4], 85.1 nM.
In the case of `COc1ccccc1Oc1c(NS(=O)(=O)Cc2ccc(C)cc2)nc(-c2ccncc2)nc1OCCOc1ncc(Br)cn1` [Example 71], the figures for the IC50 in assay [1] and in assay [2] were 115 nM and > 10000 nM, respectively.
Regarding `Cc1ccc(-c2c(NS(=O)(=O)CCCc3ccccc3)ncnc2OCCOc2ncc(Br)cn2)cc1` [Example 75], in assay [3], the Kb is 17.4 nM.

By IC50 is commonly meant the concentration needed to halve the response being measured.
